A short description of series [1]: Cytotoxicity against human macrophages assessed as cell growth inhibition. Format: cell-based, Macrophage.
The subject of series [2] is HeLa. The series is described as follows: Antiproliferative activity against human HeLa cells after 24 hrs by MTT assay. (In general: Tetrazolium assays rely on reduction of a dye to a coloured formazan, in cell work by metabolically active cells.)
Another series relates to HepG2. Briefly: Antiproliferative activity against human HepG2 cells after 24 hrs by MTT assay. The settings on record: HepG2, 24 h.
Another series concerns MCF7. The series is described as follows: Antiproliferative activity against human MCF7 cells after 24 hrs by MTT assay. To be noted: MCF7, 24 h.
Series [3] relates to HeLa. Briefly: Induction of apoptosis in human HeLa cells assessed as late apoptotic cells at 2 uM after 24 hrs by Annexin V FITC/propidium iodide staining based flow cytometric analysis (reference value: 10.17 %). It counts as functional.
Series [4] concerns HeLa. The series is described as follows: Induction of apoptosis in human HeLa cells assessed as early apoptotic cells at 2 uM after 24 hrs by Annexin V FITC/propidium iodide staining based flow cytometric analysis (reference value: 8.45 %). Format: functional. On the technique in general: Flow cytometry measures light scatter and fluorescence of single cells or particles in a stream.

For series [5], the system named is HeLa. Briefly: Induction of apoptosis in human HeLa cells assessed as early apoptotic cells at 10 uM after 24 hrs by Annexin V FITC/propidium iodide staining based flow cytometric analysis (reference value: 8.45 %). It counts as functional.
Series [6] concerns HeLa. Briefly: Induction of apoptosis in human HeLa cells assessed as late apoptotic cells at 10 uM after 24 hrs by Annexin V FITC/propidium iodide staining based flow cytometric analysis (reference value: 10.17 %). It counts as functional.
The test system of series [7] is HeLa. The series is described as follows: Induction of apoptosis in human HeLa cells assessed as early apoptotic cells at 50 uM after 24 hrs by Annexin V FITC/propidium iodide staining based flow cytometric analysis (reference value: 8.45 %). Format: functional.
The subject of series [8] is HeLa. Briefly: Induction of apoptosis in human HeLa cells assessed as late apoptotic cells at 50 uM after 24 hrs by Annexin V FITC/propidium iodide staining based flow cytometric analysis (reference value: 10.17 %). It counts as functional.
The test system of series [9] is HeLa. Briefly: Induction of apoptosis in human HeLa cells assessed as early apoptotic cells after 24 hrs by Annexin V FITC/propidium iodide staining based flow cytometric analysis. Format: functional, cell-based.
Series [10] deals with HeLa. Briefly: Induction of apoptosis in human HeLa cells assessed as late apoptotic cells after 24 hrs by Annexin V FITC/propidium iodide staining based flow cytometric analysis. Format: functional, cell-based.

As usually defined, the CC50 is the concentration that lowers cell viability or growth by half. In general, IC50 refers to the concentration that gives 50% inhibition. A low value points to greater potency. For `COc1ccc(Cc2nnc(Cn3nnc4ccccc43)o2)cc1`, the CC50 in series [1] is above 100 µM. Moreover, the IC50 in the series on HeLa [2] is 150 µM; in the series with HepG2, 357 µM; in the series on MCF7 it was 251 µM.

Consider `Clc1cccc(-c2nnc(Cn3nnc4ccccc43)o2)c1`, for which, in series [1], the CC50 was above 100 µM. Moreover, the IC50 worked out at 327 µM in the series with HeLa [2], 440 µM in the series on HepG2 and 390 µM in the series with MCF7.

On to `Brc1cccc(Cc2nnc(Cn3nnc4ccccc43)o2)c1`, for which the CC50 in series [1] was above 100 µM. Further, the results for the IC50 in the series on HeLa [2], with HepG2 and with MCF7 were 182 µM, 398 µM and 269 µM, respectively.

Turning to `Brc1cccc(-c2nnc(Cn3nnc4ccccc43)o2)c1`, the CC50 in series [1] is above 100 µM. In addition, the IC50 with HeLa [2] came to 301 µM; in the series with HepG2, 488 µM; with MCF7, 382 µM.

As for `COc1ccccc1Cc1nnc(Cn2nnc3ccccc32)o1`, the CC50 in series [1] was above 100 µM. For the same molecule, the IC50 came to 11 µM in the series with HeLa [2], 334 µM in the series with HepG2 and 15 µM in the series with MCF7. For the same molecule, the Activity in the series on HeLa [3] came to 19.6%; in the series with HeLa [4], 9.86%; in the series with HeLa [5] it was 23.57%; in the series with HeLa [6], 20.79%; with HeLa [7], 36.18%; with HeLa [8], 35.86%. Moreover, the Activity result with HeLa [9] and with HeLa [10] was “Dose-dependent effect” throughout.

On to `Fc1cccc(-c2nnc(Cn3nnc4ccccc43)o2)c1`, for which, in series [1], the CC50 is above 100 µM. For the same molecule, the IC50 in the series on HeLa [2] is 332 µM; in the series on HepG2 it was 451 µM; in the series with MCF7 it was 398 µM.

Consider `O=[N+]([O-])c1ccc(Cc2nnc(Cn3nnc4ccccc43)o2)cc1`, for which the CC50 in series [1] is above 100 µM. For the same molecule, the IC50 worked out at 157 µM in the series with HeLa [2], 367 µM in the series on HepG2 and 253 µM with MCF7.

Take `COc1cccc(-c2nnc(Cn3nnc4ccccc43)o2)c1`: the CC50 in series [1] is above 100 µM. Further, the IC50 in the series on HeLa [2] was 243 µM; in the series on HepG2, 476 µM; with MCF7, 370 µM.

For `c1ccc(Cc2nnc(Cn3nnc4ccccc43)o2)cc1`, in [1], the CC50 was above 100 µM. Besides, the half-inhibitory concentration (IC50) in the series with HeLa [2] was 167 µM; in the series on HepG2, 369 µM; in the series on MCF7 it was 258 µM.

As for `Brc1ccc(-c2nnc(Cn3nnc4ccccc43)o2)cc1`, the CC50 in series [1] is above 100 µM. For the same molecule, the IC50 with HeLa [2] was found to be 305 µM; in the series on HepG2, 438 µM; in the series on MCF7, 387 µM.

Regarding `COc1ccc(-c2nnc(Cn3nnc4ccccc43)o2)cc1`, the CC50 in series [1] is above 100 µM. For the same molecule, the figures for the IC50 in the series with HeLa [2], in the series on HepG2 and in the series with MCF7 were 269 µM, 477 µM and 376 µM, respectively.

For `Clc1cccc(Cc2nnc(Cn3nnc4ccccc43)o2)c1`, the CC50 in series [1] was above 100 µM. Also, the IC50 in the series with HeLa [2] worked out at 230 µM; in the series with HepG2 it was 401 µM; in the series on MCF7, 292 µM.

As to `O=[N+]([O-])c1ccc(-c2nnc(Cn3nnc4ccccc43)o2)cc1`, in series [1], the CC50 was above 100 µM. For the same molecule, the half-maximal inhibitory concentration (IC50) in the series on HeLa [2] was 299 µM; in the series on HepG2, 483 µM; with MCF7 it was 13 µM.

Take `COc1cccc(Cc2nnc(Cn3nnc4ccccc43)o2)c1`: the CC50 in [1] is above 100 µM. Moreover, the IC50 in the series on HeLa [2] is 123 µM; in the series on HepG2 it was 350 µM; in the series with MCF7, 241 µM.

Take `COc1ccccc1-c1nnc(Cn2nnc3ccccc32)o1`: the CC50 in series [1] was above 100 µM. Further, the results for the IC50 in the series with HeLa [2], in the series on HepG2 and with MCF7 were 216 µM, 452 µM and 331 µM, respectively.

For `Brc1ccc(Cc2nnc(Cn3nnc4ccccc43)o2)cc1`, the CC50 in [1] was above 100 µM. The IC50 was 198 µM in the series with HeLa [2], 357 µM in the series with HepG2 and 277 µM in the series on MCF7.

As for `Fc1cccc(Cc2nnc(Cn3nnc4ccccc43)o2)c1`, in series [1], the CC50 is above 100 µM. For the same molecule, the figures for the IC50 in the series with HeLa [2], in the series on HepG2 and in the series on MCF7 were 237 µM, 368 µM and 357 µM, respectively.

(Values after ChEMBL document CHEMBL3779785, “1,3,4-Oxadiazole derivatives as potential antitumor agents: discovery, optimization and biological activity valuation” (Medchemcomm, 2016).)
